The results in this text go back to ChEMBL document CHEMBL6134857, “Novel Spiro-Barbiturates Can Reverse the Action of General Anesthetics on the GABAAR” (J Med Chem, 2025).

Holding throughout (format): cell membranes
Experiment [1] addresses T1, GABA-A receptor; alpha-1/beta-3/gamma-2 (Homo sapiens) (UniProt P14867+P18507+P28472). Put plainly: Effect on [3H]muscimol binding to full length human N-terminal flag-tagged alpha1-beta3-C-terminal 1D4-tagged gamma2 GABAA receptor extracted from Tetracycline-resistant HEK293 cell membrane assessed as fold change in [3H]muscimol binding at 300 uM incubated for 30 mins. Particulars: filed as modulator.

In experiment [2] the target is T1, GABA-A receptor; alpha-1/beta-3/gamma-2 (Homo sapiens). Put plainly: Inhibition of R-mTFD-MPAB-induced [3H]muscimol binding to full length human N-terminal flag-tagged alpha1-beta3-C-terminal 1D4-tagged gamma2 GABAA receptor extracted from Tetracycline-resistant HEK293 cell membrane at 300 uM incubated for 30 mins relative to control.
For experiment [3] the target is unchanged. Put plainly: Inhibition of R-mTFD-MPAB-induced [3H]muscimol binding to full length human N-terminal flag-tagged alpha1-beta3-C-terminal 1D4-tagged gamma2 GABAA receptor extracted from Tetracycline-resistant HEK293 cell membrane assessed as fold change at 300 uM incubated for 30 mins. Particulars: filed as modulator.
Experiment [4] has the same target. Put plainly: Effect on [3H]muscimol binding to full length human N-terminal flag-tagged alpha1-beta3-C-terminal 1D4-tagged gamma2 GABAA receptor extracted from Tetracycline-resistant HEK293 cell membrane assessed as [3H]muscimol binding at 300 uM incubated for 30 mins relative to control.
Experiment [5] has the same target. Put plainly: Inhibition of [3H]flunitrazepam binding to full length human N-terminal flag-tagged alpha1-beta3-C-terminal 1D4-tagged gamma2 GABAA receptor extracted from Tetracycline-resistant HEK293 cell membrane assessed as reduction in [3H]flunitrazepam binding at 300 uM incubated for 30 mins relative to control.
Experiment [6] has the same target. The experiment in a line: Modulation of [3H]flunitrazepam binding to full length human N-terminal flag-tagged alpha1-beta3-C-terminal 1D4-tagged gamma2 GABAA receptor extracted from Tetracycline-resistant HEK293 cell membrane assessed as fold change in [3H]flunitrazepam binding at 300 uM incubated for 30 mins. To be noted: filed as modulator.

Calls of active or inactive are those of the source. No cut-off for these calls is given here.

With `N=C1NC(=O)C2(CCc3ccc(Br)cc32)C(=O)N1` (configuration not stated), the fold change (FC) came out at 0.03 in experiment [1] and 0.53 in experiment [3]. Also, in experiment [2], the inhibition (as a rule, the percentage by which the read-out fell short of the control) was greater than 40%. For the same compound, the Activity in experiment [4] is less than 10%.

In the case of `O=C1NC(=O)C2(CCCc3ccccc32)C(=O)N1`, the fold change (FC) was determined as 0.08 in experiment [1], 0.45 in experiment [6] and 0.97 in experiment [3]. Besides, in experiment [5], the inhibition amounted to 12%.

Take `COc1ccc2c(c1)C1(CC2)C(=O)NC(=O)N(C)C1=O` (stereo in doubt; 7h-2): the results for the fold change (FC) in experiment [1], in experiment [6] and in experiment [3] were 0.37, 0.88 and 0.73, respectively. For the same compound, the inhibition in experiment [5] was 12%.

As to `CCC1(c2ccccc2)C(=O)NC(=O)NC1=O`, the fold change (FC) in experiment [1] was 0.43; in experiment [3] it was 0.88. Moreover, the inhibition in experiment [2] is 12%. In addition, the Activity in experiment [4] (filed as modulator) was determined as 43%.

As to `NN=C1NC(=O)C2(CCc3ccccc32)C(=O)N1` (configuration not stated), the fold change (FC) in experiment [1] was -0.02; in experiment [3] it was 0.66.

Take `CCCN1C(=O)NC(=O)C2(CCc3ccccc32)C1=O` (stereo in doubt; 1j-2): the fold change (FC) in experiment [1] was found to be 0.05; in experiment [3], 0.95.

In the case of `CN1C(=O)NC(=O)[C@]2(CCc3ccccc32)C1=O`, the fold change (FC) was 0.16 in experiment [1], 0.67 in experiment [6] and 0.67 in experiment [3]. The inhibition in experiment [5] came out at 12%.

Turning to `Cc1ccc2c(c1)C1(CC2)C(=O)NC(=O)N(C)C1=O` (stereo in doubt; 4h-1), the fold change (FC) in experiment [1] is 0.15; in experiment [6], 0.76; in experiment [3] it was 0.88. Further, the inhibition in experiment [5] was determined as 12%.

As to `CC(C)c1ccc2c(c1)C1(CC2)C(=O)NC(=S)NC1=O`, the fold change (FC) in experiment [1] was 0.54; in experiment [3], 0.87. The compound also displayed an inhibition in experiment [2] greater than 40%. The Activity in experiment [4] is less than 10%.

With `COc1ccc2c(c1)C1(CC2)C(=O)NC(=O)N(C)C1=O` (stereo in doubt; 7h-1), the results for the fold change (FC) in experiment [1], in experiment [6] and in experiment [3] were 0.36, 0.55 and 1.06, respectively. In experiment [5], the inhibition came out at 45%.

`CCCN1C(=O)NC(=O)C2(CCc3ccccc32)C1=O` (stereo in doubt; 1j-1): the fold change (FC) in experiment [1] stood at 0.31; in experiment [3], 0.95.

Turning to `CCN1C(=O)NC(=O)C2(CCc3ccccc32)C1=O` (stereo in doubt; 1i-2), the fold change (FC) in experiment [1] turned out to be 0.11; in experiment [3] it was 0.86.

Turning to `COc1ccc2c(c1)C1(CC2)C(=O)NC(=S)NC1=O`, the values for the fold change (FC) in experiment [1] and in experiment [3] were 0.2 and 1.04, respectively. The inhibition in experiment [2] was greater than 40%. Also, in experiment [4], the Activity was less than 10%.

Take `O=C1NC(=NO)NC(=O)C12CCc1ccccc12` (configuration not stated): the fold change (FC) in experiment [1] is 0.07; in experiment [3] it was 0.66.

Turning to `CC1CC2(C(=O)NC(=O)NC2=O)c2ccccc21` (stereo in doubt; 11g-1), the figures for the fold change (FC) in experiment [1] and in experiment [3] were 0.06 and 0.96, respectively.

In the case of `CN1C(=O)N(C)C(=O)C2(CCc3ccccc32)C1=O`, the fold change (FC) was found to be 0.07 in experiment [1] and 0.98 in experiment [3].

On to `COc1ccc2c(c1)C1(CC2)C(=O)NC(=O)NC1=O`, for which the fold change (FC) in experiment [1] is 0; in experiment [3], 0.69. Besides, the inhibition in experiment [2] was greater than 40%. Besides, the Activity in experiment [4] is less than 10%.

Take `CCN1C(=O)NC(=O)C2(CCc3ccccc32)C1=O` (stereo in doubt; 1i-1): the fold change (FC) in experiment [1] is 0.05; in experiment [3], 0.86.

For `CN1C(=O)NC(=O)C2(CCCc3ccccc32)C1=O` (stereo in doubt; 2h-1), the fold change (FC) in experiment [1] stood at 0.13; in experiment [3], 0.9.

`CN1C(=O)NC(=O)C2(CCc3ccc(Br)cc32)C1=O` (stereo in doubt; 6h-1): the values for the fold change (FC) in experiment [1], in experiment [6] and in experiment [3] were 0.4, 0.65 and 0.99, respectively. For the same compound, the inhibition in experiment [5] amounted to 12%.

Turning to `O=C1NC(=O)C2(CC(O)c3ccccc32)C(=O)N1` (stereo in doubt; 1t-2), the fold change (FC) in experiment [1] was 0.02; in experiment [3], 0.55. This compound also showed an inhibition in experiment [2] of 45%. The result in experiment [4] was inactive.

Turning to `CC(C)c1ccc2c(c1)C1(CC2)C(=O)NC(=O)N(C)C1=O` (stereo in doubt; 5h-2), the fold change (FC) is 0.14 in experiment [1], 0.59 in experiment [6] and 0.97 in experiment [3]. Also, the inhibition in experiment [5] was 12%.

As to `N=C1NC(=O)C2(CCc3ccc(F)cc32)C(=O)N1` (configuration not stated), the fold change (FC) in experiment [1] was -0.02; in experiment [3], 0.58. For the same compound, the inhibition in experiment [2] was greater than 40%. Moreover, the Activity in experiment [4] is less than 10%.

`CN1C(=O)NC(=O)C2(CCc3ccc(Br)cc32)C1=O` (stereo in doubt; 6h-2): the fold change (FC) was found to be 0.35 in experiment [1], 0.61 in experiment [6] and 1.09 in experiment [3]. Besides, the inhibition in experiment [5] was determined as 12%.

For `O=C1NC(=O)C2(CCCCc3ccccc32)C(=O)N1`, the figures for the fold change (FC) in experiment [1], in experiment [6] and in experiment [3] were 0.22, 0.43 and 0.98, respectively. Besides, the inhibition in experiment [5] was 12%.

For the compound `CN1C(=O)NC(=O)C2(CCCCc3ccccc32)C1=O` (stereo in doubt; 3h-2), the values for the fold change (FC) in experiment [1] and in experiment [3] were 0.1 and 0.98, respectively.

On to `CC1Cc2ccccc2C12C(=O)NC(=O)NC2=O` (stereo in doubt; 10g-1), for which the figures for the fold change (FC) in experiment [1] and in experiment [3] were 0.06 and 0.9, respectively.

Take `O=C1NC(=O)C2(CCc3ccc(Cl)cc32)C(=O)N1`: the fold change (FC) came out at 0.15 in experiment [1] and 0.88 in experiment [3]. For the same compound, the inhibition in experiment [2] is greater than 40%. Besides, the Activity in experiment [4] is less than 10%.

As to `N#CSC1CC2(C(=O)NC(=O)NC2=O)c2ccccc21` (stereo in doubt; 1y-1), the fold change (FC) in experiment [1] turned out to be 0.2; in experiment [3] it was 0.61.

As to `O=C1NC(=S)NC(=O)C12CCc1ccccc12`, the values for the fold change (FC) in experiment [1] and in experiment [3] were 0.02 and 0.78, respectively.

In the case of `O=C1NC(=S)NC(=O)C12CCc1ccc(Br)cc12`, the fold change (FC) in experiment [1] came out at 0.43; in experiment [3] it was 0.74. The same compound yielded an inhibition in experiment [2] greater than 40%. Also, the Activity in experiment [4] is less than 10%.

With `Cc1ccc2c(c1)C1(CC2)C(=O)NC(=S)NC1=O`, the figures for the fold change (FC) in experiment [1] and in experiment [3] were 0.02 and 0.94, respectively. The same compound displayed an inhibition in experiment [2] greater than 40%. Besides, the Activity in experiment [4] was less than 10%.

As to `Cc1ccc2c(c1)C1(CC2)C(=O)NC(=N)NC1=O` (configuration not stated), the fold change (FC) in experiment [1] was -0.09; in experiment [3], 0.36. Also, the inhibition in experiment [2] is greater than 40%. The Activity in experiment [4] is less than 10%.

For `Cc1ccc2c(c1)C1(CC2)C(=O)NC(=O)NC1=O`, the values for the fold change (FC) in experiment [1] and in experiment [3] were 0.06 and 0.87, respectively. Moreover, the inhibition in experiment [2] was greater than 40%. For the same compound, the Activity in experiment [4] was less than 10%.

As to `N=C1NC(=O)C2(CCc3ccc(Cl)cc32)C(=O)N1` (configuration not stated), the figures for the fold change (FC) in experiment [1] and in experiment [3] were 0.02 and 0.53, respectively. The inhibition in experiment [2] is greater than 40%. The Activity in experiment [4] is less than 10%.

On to `O=C1NC(=O)C2(CCc3ccc(Br)cc32)C(=O)N1`, for which the fold change (FC) in experiment [1] was determined as 0.05; in experiment [3], 0.9. The inhibition in experiment [2] was greater than 40%. The Activity in experiment [4] was less than 10%.

In the case of `CN1C(=O)NC(=O)C2(CCCCc3ccccc32)C1=O` (stereo in doubt; 3h-1), the fold change (FC) turned out to be 0.32 in experiment [1] and 0.93 in experiment [3].

For `CN1C(=O)NC(=O)[C@@]2(CCc3ccccc32)C1=O`, the fold change (FC) in experiment [1] was found to be 0.08; in experiment [6], 0.56; in experiment [3], 0.78. For the same compound, the inhibition in experiment [5] amounted to 12%.

For `O=C1NC(=O)C2(CCc3ccc(F)cc32)C(=O)N1`, the fold change (FC) in experiment [1] came to 0.07; in experiment [3] it was 0.73. In experiment [2], the inhibition is greater than 40%. Further, in experiment [4], the Activity is less than 10%.

As to `O=C1NC(=O)C2(CC(O)c3ccccc32)C(=O)N1` (stereo in doubt; 1t-1), the fold change (FC) amounted to 0 in experiment [1] and 0.98 in experiment [3].

In the case of `CN1C(=O)NC(=O)C2(CCCc3ccccc32)C1=O` (stereo in doubt; 2h-2), the results for the fold change (FC) in experiment [1] and in experiment [3] were -0.01 and 0.8, respectively.

Turning to `CC1CC2(C(=O)NC(=O)NC2=O)c2ccccc21` (stereo in doubt; 11g-2), the fold change (FC) in experiment [1] turned out to be 0.15; in experiment [3] it was 0.99.

With `CC1Cc2ccccc2C12C(=O)NC(=O)NC2=O` (stereo in doubt; 10g-2), the fold change (FC) in experiment [1] came out at 0.13; in experiment [3] it was 0.95.

As to `NC1CC2(C(=O)NC(=O)NC2=O)c2ccccc21` (racemic), the fold change (FC) turned out to be 0.1 in experiment [1] and 0.81 in experiment [3]. Further, in experiment [2], the inhibition was determined as 19%. Besides, the result in experiment [4] was inactive.

In the case of `N#CSC1CC2(C(=O)NC(=O)NC2=O)c2ccccc21` (stereo in doubt; 1y-2), the fold change (FC) in experiment [1] was found to be 0.3; in experiment [3] it was 0.67.
